Data from PubChem BioAssay (NCI).
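In this assay, cells in 96-well plates receive the compound at five concentrations for 48 hours. Endpoints are linearly interpolated between the surrounding concentrations. At the TGI there is no net growth.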

Columns and labels:
Assay in all cases: growth of human tumour cells (NCI), 48 h
[1] = test system: HT29 colon
[2] = test system: HCC-2998 colon
[3] = test system: NCI/ADR-RES ovarian
[4] = test system: SK-MEL-28 melanoma
[5] = test system: MOLT-4 leukemia
[6] = test system: UACC-257 melanoma
[7] = test system: SK-OV-3 ovarian
[8] = test system: CCRF-CEM leukemia
[9] = test system: M14 melanoma
[10] = test system: 786-0 renal
[11] = test system: SF-539 CNS
[12] = test system: RXF 393 renal
[13] = test system: EKVX NSCLC
[14] = test system: OVCAR-3 ovarian
[15] = test system: HCT-15 colon
[16] = test system: HOP-62 NSCLC
[17] = test system: OVCAR-5 ovarian
[18] = test system: SW-620 colon
[19] = test system: U251 CNS
[20] = test system: MDA-MB-435
[21] = test system: RPMI-8226 leukemia
[22] = test system: NCI-H23 lung
[23] = test system: OVCAR-4 ovarian
[24] = test system: MDA-N
[25] = test system: PC-3 prostate
[26] = test system: K-562 leukemia
[27] = test system: HL-60(TB) leukemia
[28] = test system: SF-268 CNS
[29] = test system: DU-145 prostate
[30] = test system: SK-MEL-2 melanoma
[31] = test system: A498 renal
[32] = test system: MDA-MB-231 breast
[33] = test system: MALME-3M melanoma
[34] = test system: SF-295 CNS
[35] = test system: NCI-H226 lung
[36] = test system: CAKI-1 renal
[37] = test system: TK-10 renal
[38] = test system: UO-31 renal
[39] = test system: MCF7 breast
[40] = test system: COLO 205 colon
[41] = test system: OVCAR-8 ovarian
[42] = test system: KM12 colon
[43] = test system: SNB-19 CNS
[44] = test system: A549 NSCLC
[45] = test system: LOX IMVI melanoma
[46] = test system: NCI-H460 lung
[47] = test system: SK-MEL-5 melanoma
[48] = test system: SN12C renal
[49] = test system: IGROV1 ovarian
[50] = test system: NCI-H522 lung
[51] = test system: BT-549 breast
[52] = test system: HS 578T breast
[53] = test system: ACHN renal
[54] = test system: HCT-116 colon
[55] = test system: UACC-62 melanoma
[56] = test system: SR leukemia
[57] = test system: HOP-92 NSCLC
[58] = test system: T-47D breast
[59] = test system: SNB-75 CNS

For CCCCC/C(=N\c1nc[nH]c1C(N)=O)OCC, the TGI [1] was over 100 µM, the TGI [2] was over 100 µM and the TGI [3] was over 100 µM. The TGI [4] was over 100 µM, the TGI [5] was over 100 µM and the TGI [6] was over 100 µM. It also gave a TGI [7] of over 100 µM, a TGI [8] of over 100 µM and a TGI [9] of over 100 µM. It also gave a TGI [10] of over 100 µM, a TGI [11] of over 100 µM and a TGI [12] of over 100 µM. The TGI [13] was over 100 µM, the TGI [14] was over 100 µM and the TGI [15] was over 100 µM. For the same molecule, the TGI [16] was over 100 µM, the TGI [17] was over 100 µM and the TGI [18] was over 100 µM. For the same molecule, the TGI [19] was over 100 µM, the TGI [20] was over 100 µM and the TGI [21] was over 100 µM. For the same molecule, the TGI [22] was over 100 µM, the TGI [23] was over 100 µM and the TGI [24] was over 100 µM. It also gave a TGI [25] of over 100 µM, a TGI [26] of over 100 µM and a TGI [27] of over 100 µM. It also gave a TGI [28] of over 100 µM, a TGI [29] of over 100 µM and a TGI [30] of over 100 µM. For the same molecule, the TGI [31] was over 100 µM, the TGI [32] was over 100 µM and the TGI [33] was over 100 µM. The TGI [34] was over 100 µM, the TGI [35] was over 100 µM and the TGI [36] was over 100 µM. For the same molecule, the TGI [37] was over 100 µM, the TGI [38] was over 100 µM and the TGI [39] was over 100 µM. The TGI [40] was over 100 µM, the TGI [41] was over 100 µM and the TGI [42] was over 100 µM. The TGI [43] was over 100 µM, the TGI [44] was over 100 µM and the TGI [45] was over 100 µM. The TGI [46] was over 100 µM, the TGI [47] was over 100 µM and the TGI [48] was over 100 µM. For the same molecule, the TGI [49] was over 100 µM, the TGI [50] was over 100 µM and the TGI [51] was over 100 µM. It also gave a TGI [52] of over 100 µM, a TGI [53] of over 100 µM and a TGI [54] of over 100 µM. For the same molecule, the TGI [55] was over 100 µM and the TGI [56] was over 100 µM.

CN(C)C(=S)SCc1ccccc1 was tested, and the TGI [1] was over 100 µM, the TGI [3] was over 100 µM and the TGI [4] was over 100 µM. It also gave a TGI [6] of over 100 µM, a TGI [7] of over 100 µM and a TGI [8] of over 100 µM. For the same molecule, the TGI [9] was over 100 µM, the TGI [11] was over 100 µM and the TGI [12] was over 100 µM. It also gave a TGI [13] of over 100 µM, a TGI [14] of over 100 µM and a TGI [15] of over 100 µM. The TGI [16] was over 100 µM, the TGI [57] was over 100 µM and the TGI [17] was over 100 µM. For the same molecule, the TGI [18] was over 100 µM, the TGI [19] was over 100 µM and the TGI [20] was over 100 µM. The TGI [22] was over 100 µM, the TGI [24] was over 100 µM and the TGI [27] was over 100 µM. For the same molecule, the TGI [28] was over 100 µM, the TGI [29] was over 100 µM and the TGI [30] was over 100 µM. For the same molecule, the TGI [31] was over 100 µM, the TGI [32] was over 100 µM and the TGI [33] was over 100 µM. It also gave a TGI [34] of over 100 µM, a TGI [35] of over 100 µM and a TGI [36] of over 100 µM. For the same molecule, the TGI [58] was 60.6 µM, the TGI [37] was over 100 µM and the TGI [38] was over 100 µM. It also gave a TGI [59] of 70.3 µM, a TGI [39] of over 100 µM and a TGI [40] of over 100 µM. For the same molecule, the TGI [41] was over 100 µM, the TGI [42] was over 100 µM and the TGI [43] was over 100 µM. It also gave a TGI [44] of over 100 µM, a TGI [45] of over 100 µM and a TGI [46] of over 100 µM. For the same molecule, the TGI [47] was over 100 µM, the TGI [48] was over 100 µM and the TGI [49] was over 100 µM. For the same molecule, the TGI [50] was over 100 µM, the TGI [51] was over 100 µM and the TGI [52] was over 100 µM. It also gave a TGI [54] of over 100 µM and a TGI [55] of over 100 µM.
